Drawing on patent publication US11845760B2, “PRMT5 inhibitors” (AMGEN INC., priority 2020, dated 2023), this text covers IC50 for 14 compounds.

Assay [1] has as its system HCT116 MTAP null cells. As to the kind of experiment: HCT116 MTAP null cell line proliferation (CellTiter-Glo cell viability, 6 days). Type of assay: cell-based. The note with it: HCT116 MTAP null cells, 6 days of treatment, CellTiter-Glo cell viability, read-out: HCT-116 MTAP null IC50. Summed up: (§1)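 Isogenic HCT116 pair (parent and MTAP double-allele knockout) in RPMI 1640 + 10% FBS, exposed 6 days to compound: 8–9-point 1:3 dilutions from 1 or 10 μM top, or 22-point 1:2 dilutions from 10 or 50 μM top. CellTiter-Glo luminescence; IC50 from sigmoidal fit (Hill −1) or 4-parameter logistic.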
(Cellular ATP, detected with luciferase, serves as a proxy for viable cell number.)

Assay [2] has as its system HCT116 WT cells. As to the kind of experiment: HCT116 WT cell line proliferation (CellTiter-Glo cell viability, 6 days). It is filed as cell-based. The note with it: HCT116 WT (parent) cells, 6 days of treatment, CellTiter-Glo cell viability, read-out: HCT-116 WT IC50. Summed up:
as §1

Where two headings read alike, the source gives them in different places.

As usually defined, the IC50 is the concentration that inhibits the measured activity by half. Take `Nc1nc2cc(F)c(C(=O)N3CCOCC3c3ccc(OC(F)F)nc3)cc2c2c1COC2` (racemic) [Example 385, (4-amino-7-fluoro-1,3-dihydrofuro[3,4-c]quinolin-8-yl)((3R)-3-(6-(difluoromethoxy)-3-pyridinyl)-4-morpholinyl)methanone and (4-amino-7-fluoro-1,3-dihydrofuro[3,4-c]quinolin-8-yl)((3S)-3-(6-(difluoromethoxy)-3-pyridinyl)-4-morpholinyl)methanone]: the IC50 came out at 151 nM in assay [1] and 5830 nM in assay [2].
For the compound `Cn1ncc2c(N)nc3cc(F)c(C(=O)N4CCOC[C@@H]4c4ccc(OC(F)F)nn4)cc3c21` [Example 556, (4-amino-7-fluoro-1-methyl-1H-pyrazolo[4,3-c]quinolin-8-yl)((3S)-3-(6-(difluoromethoxy)-3-pyridazinyl)-4-morpholinyl)methanone], the IC50 in assay [1] (HCT116-MTAP null, 144 h) came to 39 nM; in assay [2] (Homo sapiens, HCT-116, 144 h), 3580 nM.
In the case of `Nc1nc2cnc(C(=O)N3CCOCC3c3ccc(C(F)(F)F)cn3)cc2c2c1COC2` (racemic) [Example 494, (4-amino-1,3-dihydrofuro[3,4-c][1,7]naphthyridin-8-yl)-[rac-(3S)-3-[5-(trifluoromethyl)-2-pyridyl]morpholin-4-yl]methanone], the IC50 in assay [1] (HCT116-MTAP null, 144 h) amounted to 352 nM; in assay [2] (Homo sapiens, HCT-116, 144 h) it was 14000 nM.
With `C[C@@H]1COC[C@H](c2ccc(C(F)(F)F)cn2)N1C(=O)c1cc2c(cc1F)nc(N)c1cnn(C)c12` [Example 519, (4-amino-7-fluoro-1-methyl-1H-pyrazolo[4,3-c]quinolin-8-yl)((3R,5S)-3-methyl-5-(5-(trifluoromethyl)-2-pyridinyl)-4-morpholinyl)methanone], the half-maximal inhibitory concentration (IC50) in assay [1] (HCT116-MTAP null, 144 h) came out at 4 nM; in assay [2] (Homo sapiens, HCT-116, 144 h), 26 nM.
On to `CC1OCc2c1c(N)nc1cnc(C(=O)N3C(C)COCC3c3ccc(C(F)(F)F)cc3F)cc21` (mixture of isomers) [Example 332, ((3S)-4-amino-3-methyl-1,3-dihydrofuro[3,4-c][1,7]naphthyridin-8-yl)((3R,5S)-3-(2-fluoro-4-(trifluoromethyl)phenyl)-5-methyl-4-morpholinyl)methanone and ((3S)-4-amino-3-methyl-1,3-dihydrofuro[3,4-c][1,7]naphthyridin-8-yl)((3S,5R)-3-(2-fluoro-4-(trifluoromethyl)phenyl)-5-methyl-4-morpholinyl)methanone], for which the IC50 in assay [1] was determined as 536 nM; in assay [2], 23300 nM.
Take `C[C@H]1COC[C@@H](c2ccc(OC(F)(F)F)cc2F)N1C(=O)c1cc2c3c(c(N)nc2cn1)COC3` (racemic) [Example 328, (4-amino-1,3-dihydrofuro[3,4-c][1,7]naphthyridin-8-yl)((3R,5S)-3-(2-fluoro-4-(trifluoromethoxy)phenyl)-5-methyl-4-morpholinyl)methanone and (4-amino-1,3-dihydrofuro[3,4-c][1,7]naphthyridin-8-yl)((3S,5R)-3-(2-fluoro-4-(trifluoromethoxy)phenyl)-5-methyl-4-morpholinyl)methanone]: the IC50 in assay [1] (HCT116-MTAP null, 144 h) turned out to be 49 nM; in assay [2] (Homo sapiens, HCT-116, 144 h), 1000 nM.
For `Cn1ncc2c3cc(C(=O)N4CCOC[C@@H]4c4ccc(OC(F)F)nn4)c(F)cc3nc(N)c21` [Example 557, (4-amino-7-fluoro-3-methyl-3H-pyrazolo[3,4-c]quinolin-8-yl)((3S)-3-(6-(difluoromethoxy)-3-pyridazinyl)-4-morpholinyl)methanone], the IC50 in assay [1] (HCT116-MTAP null, 144 h) was determined as 697 nM; in assay [2] (Homo sapiens, HCT-116, 144 h), 37100 nM.
As to `Nc1nc2cnc(C(=O)N3CCSC[C@@H]3c3ccc(C(F)(F)F)cc3)cc2c2c1COC2` (single isomer, unassigned) [Example 595, (4-amino-1,3-dihydrofuro[3,4-c][1,7]naphthyridin-8-yl)((3S)-3-(4-(trifluoromethyl)phenyl)-4-thiomorpholinyl)methanone or (4-amino-1,3-dihydrofuro[3,4-c][1,7]naphthyridin-8-yl)((3R)-3-(4-(trifluoromethyl)phenyl)-4-thiomorpholinyl)methanone], the 50% inhibitory concentration (IC50) came to 138 nM in assay [1] (HCT116-MTAP null, 144 h) and 8010 nM in assay [2] (Homo sapiens, HCT-116, 144 h).
Take `Nc1nc2cnc(C(=O)N3CCOCC3c3c(F)cc(Br)cc3F)cc2c2c1COC2` (racemic) [Example 505, (4-amino-1,3-dihydrofuro[3,4-c][1,7]naphthyridin-8-yl)((3R)-3-(4-bromo-2,6-difluorophenyl)-4-morpholinyl)methanone and (4-amino-1,3-dihydrofuro[3,4-c][1,7]naphthyridin-8-yl)((3S)-3-(4-bromo-2,6-difluorophenyl)-4-morpholinyl)methanone]: the IC50 in assay [1] (HCT116-MTAP null, 144 h) came to 330 nM; in assay [2] (Homo sapiens, HCT-116, 144 h), 21500 nM.
Consider `C[C@@H]1COC[C@H](c2ccc(OC(F)(F)F)cc2)N1C(=O)c1ccc2nc(N)c3c(c2c1)COC3` (single isomer, unassigned) [Example 588], for which the IC50 in assay [1] (HCT116-MTAP null, 144 h) turned out to be 14 nM; in assay [2] (Homo sapiens, HCT-116, 144 h) it was 466 nM.
Regarding `Nc1nc2cc(F)c(C(=O)N3CCOCC3c3ccc(F)c(C(F)(F)F)c3)cc2c2c1COC2` (racemic) [Example 342, (4-amino-7-fluoro-1,3-dihydrofuro[3,4-c]quinolin-8-yl)((3R)-3-(4-fluoro-3-(trifluoromethyl)phenyl)-4-morpholinyl)methanone and (4-amino-7-fluoro-1,3-dihydrofuro[3,4-c]quinolin-8-yl)((3S)-3-(4-fluoro-3-(trifluoromethyl)phenyl)-4-morpholinyl)methanone], the IC50 in assay [1] was 117 nM; in assay [2] it was 6170 nM.
With `C[C@H]1COC[C@@H](c2ccc(Cl)nc2)N1C(=O)c1cc2c3c(c(N)nc2cc1F)COC3` (racemic) [Example 313, (4-amino-7-fluoro-1,3-dihydrofuro[3,4-c]quinolin-8-yl)((3R,5S)-3-(6-chloro-3-pyridinyl)-5-methyl-4-morpholinyl)methanone and (4-amino-7-fluoro-1,3-dihydrofuro[3,4-c]quinolin-8-yl)((3S,5R)-3-(6-chloro-3-pyridinyl)-5-methyl-4-morpholinyl)methanone], the IC50 worked out at 33 nM in assay [1] (HCT116-MTAP null, 144 h) and 850 nM in assay [2] (Homo sapiens, HCT-116, 144 h).
For `CC1CN(C(=O)c2ccc3nc(N)c4c(c3c2)CO[C@@H]4C)CC1c1ccc(Br)cc1` (stereo partly drawn) [Example 402, ((3R)-4-amino-3-methyl-1,3-dihydrofuro[3,4-c]quinolin-8-yl)(3-(4-bromophenyl)-4-methylpyrrolidin-1-yl)methanone], the IC50 in assay [1] (HCT116-MTAP null, 144 h) was 833 nM; in assay [2] (Homo sapiens, HCT-116, 144 h), 13300 nM.
On to `Nc1nc2ccc(C(=O)N3CCOC[C@@H]3c3cccc(Cl)c3)cc2c2c1COC2` (single isomer, unassigned) [Example 579], for which the IC50 in assay [1] (HCT116-MTAP null, 144 h) came to 182 nM; in assay [2] (Homo sapiens, HCT-116, 144 h), 7570 nM.
